Assay results from patent publication US8017629B2, “Compounds and uses thereof in modulating amyloid β” (Neurogenetic Pharmaceuticals, Inc., priority 2003, dated 2011).

test system: Aβ42 levels in the extracellular medium; experiment: FRET (HTRF) assay, Aβ42 level of the extracellular medium of SH-SY5Y-APP cells; assay type: cell-based; conditions: Homo sapiens, concentration at which reduction of Aβ42 level was half of the maximum reduction, read-out: Ab42 Potency
Method: Compounds were evaluated for activity in modulating Aβ42 and Aβ40 levels in the extracellular medium using a homogeneous time-resolved fluorescence (HTRF) assay as follows.
For the HTRF assay, either 5 or 10 μl of supernatant from treated cells was added to 10 or 15 μl of labeled antibody pairs, for a total volume of 20 μl, and incubated for 20-24 hours at 4° C. The labeled antibody pairs were either 8000 pg B436-XL665 and 400 pg B113 Europium, for assessing Aβ40 levels, or 8000 pg B436-XL665 and 400 pg A387 Europium, for assessing Aβ42 levels, diluted in 50 mM NaPO4, 0.2% BSA, 0.5M KF, pH 7. The fluorescence was read on a BMG Rubystar at 620 nm and 665 nm.

| SMILES | EC50 |
| --- | --- |
| Cc1cc(C)c(Nc2nc(-c3ccc(-n4cnc(Br)c4)cc3)cs2)c(C)c1 [Compound 251] | 1.1 to 5 µM |
| CCN(CC)c1cc(Nc2nc(-c3ccc(-n4ccnc4)nc3)cs2)c(C)cc1C [Compound 320] | < 0.2 µM |
| c1cc2c(cc1Nc1nc(-c3ccc4c(c3)OCO4)cs1)OCO2 [Compound 105] | 1.1 to 5 µM |
| COc1ccc(C)c(Nc2nc(-c3ccc(-n4cnc(C)c4)cc3)cs2)c1 [Compound 352] | < 0.2 µM |
| CN1CCN(c2ccc(-c3csc(Nc4ccc(Oc5ccccc5)cc4)n3)cc2)CC1 [Compound 142] | 1.1 to 5 µM |
| COc1ccc(Nc2nc(-c3ccc(Cl)cc3)co2)cc1 [Compound 339] | 1.1 to 5 µM |
| Cc1cn(-c2ccc(-c3csc(Nc4ccc(N5CCOCC5)c(Cl)c4)n3)cc2)cn1 [Compound 225] | 1.1 to 5 µM |
| CN1CCN(c2ccc(-c3csc(Nc4ccc5c(c4)OCO5)n3)cn2)CC1 [Compound 328] | 0.2 to 1 µM |
| COc1cc(Nc2nc(-c3ccc4c(c3)OCCO4)cs2)cc(OC)c1OC [Compound 102] | 5.1 to 10 µM |
| CCN(CCOC)c1ccc(Nc2nc(-c3ccc(-n4cnc(C)c4)cc3C(F)(F)F)cs2)c(C)c1 [Compound 232] | 5.1 to 10 µM |
| COc1ccc(-c2csc(Nc3ccc(Br)cc3)n2)c(OC)c1 [Compound 129] | 0.2 to 1 µM |
| CN1CCC(CNc2ccc(Nc3nc(-c4ccc(-n5ccnc5)cc4)cs3)cc2)CC1 [Compound 188] | 1.1 to 5 µM |
| Clc1ccc(Nc2nc(-c3ccc(-n4cnc(Cl)c4Cl)cc3)cs2)cc1Cl [Compound 186] | 1.1 to 5 µM |
| CN1CCN(c2ccc(-c3csc(Nc4cccc5ccccc45)n3)cn2)CC1 [Compound 333] | 0.2 to 1 µM |
| CCN(CC)c1ccc(F)c(Nc2nc(-c3ccc(-n4cnc(C)c4)nc3)cs2)c1 [Compound 314] | < 0.2 µM |
| COc1cc(C)c(Nc2nc(-c3ccc(-n4cnc(C)c4)nc3)cs2)cc1C(C)C [Compound 296] | < 0.2 µM |
| CS(=O)(=O)c1ccc(-c2csc(Nc3c(Cl)cc(Cl)cc3Cl)n2)cc1 [Compound 214] | 10.1 to 30 µM |
| CN1CCN(c2ccc(-c3csc(Nc4ccc(Br)cc4)n3)cc2)CC1 [Compound 138] | 10.1 to 30 µM |
| CCN(CC)c1ccc(Nc2nc(-c3ccc(-n4cnc(C)c4)cc3)cs2)c(C)c1 [Compound 179] | 0.2 to 1 µM |
| Cc1ccc(N2CCSCC2)cc1Nc1nc(-c2ccc(-n3ccnc3)cc2)cs1 [Compound 254] | 0.2 to 1 µM |
| FC(F)(F)c1cc(NCc2ccccn2)ccc1Nc1nc(-c2ccc(-n3ccnc3)cc2)cs1 [Compound 223] | 5.1 to 10 µM |
| CCOc1ccc(Nc2nc(-c3ccc(N4CCN(C)CC4)cc3)cs2)cc1 [Compound 136] | 10.1 to 30 µM |
| CCc1cc(N2CCN(C)CC2)ccc1Nc1nc(-c2ccc(-n3ccnc3)cc2)cs1 [Compound 240] | 1.1 to 5 µM |
| CCN(CC)CCN(C)c1ccc(Nc2nc(-c3ccc(-n4ccnc4)cc3)cs2)c(C(F)(F)F)c1 [Compound 219] | 1.1 to 5 µM |
| Cc1cn(-c2ccc(-c3csc(Nc4ccc(N5CC(C)OC(C)C5)cc4)n3)cc2)cn1 (centres unmarked) [Compound 260] | 1.1 to 5 µM |
| CCOc1cc(C)c(Nc2nc(-c3ccc(-n4cnc(C)c4)cc3)cs2)cc1C [Compound 271] | < 0.2 µM |
| CN1CCN(c2ccc(Nc3nc(-c4ccc(-n5ccnc5)cc4)cs3)c(C(F)(F)F)c2)CC1 [Compound 215] | 1.1 to 5 µM |

| SMILES | EC50 |
| --- | --- |
| CCN(CC)c1ccc(C)c(Nc2nc(-c3ccc(-n4cc(C)nn4)cc3)cs2)c1 [Compound 346] | < 0.2 µM |
| Cc1cn(-c2ncc(-c3csc(Nc4cc(C)c(C)cc4C)n3)cn2)cn1 [Compound 349] | < 0.2 µM |
| CN1CCN(c2ccc(-c3csc(Nc4ccc(N(C)C)cc4)n3)cc2)CC1 [Compound 117] | 5.1 to 10 µM |
| CCN(c1ccc(N2CCCCC2)cc1)c1nc(-c2ccc(-n3ccnc3)cc2)cs1 [Compound 184] | 1.1 to 5 µM |
| COc1ccc(-c2csc(Nc3ccc(OC)c(OC)c3)n2)c(OC)c1 [Compound 101] | 1.1 to 5 µM |
| COc1ccc(-c2csc(Nc3ccc(Cl)cc3)n2)c(OC)c1 [Compound 150] | 1.1 to 5 µM |
| CCN(CC)c1ccc(-c2csc(Nc3ccc(O)cc3)n2)cc1 [Compound 123] | 10.1 to 30 µM |
| Cc1ccc(Nc2nc(-c3ccc(Br)cc3)co2)c(C)c1 [Compound 344] | 1.1 to 5 µM |
| CSc1cccc(Nc2nc(-c3ccc(-n4cnc(Br)c4)cc3)cs2)c1 [Compound 266] | 5.1 to 10 µM |
| Cc1ccc(N(C)CC2CC2)cc1Nc1nc(-c2ccc(-n3ccnc3)cc2)cs1 [Compound 304] | < 0.2 µM |
| Cc1ccc(N2CCCCC2)cc1Nc1nc(-c2ccc(-n3ccnc3)cc2)cs1 [Compound 252] | 1.1 to 5 µM |
| COc1cc(-n2cnc(C)c2)ccc1-c1csc(Nc2cc(C)c(C)cc2C)n1 [Compound 263] | 0.2 to 1 µM |
| c1cc(Nc2nc(-c3ccncc3)cs2)c2cn[nH]c2c1 [Compound 170] | 1.1 to 5 µM |
| CCN(CC)c1ccc(Nc2nc(-c3ccc(-n4cnc(-c5ccccc5)c4)cc3)cs2)c(C)c1 [Compound 147] | 1.1 to 5 µM |
| CCN(C)c1cc(Nc2nc(-c3ccc(-n4cnc(C)c4)cc3)cs2)c(C)cc1C [Compound 335] | < 0.2 µM |
| Oc1ccc(Nc2nc(-c3ccc(-c4ccccc4)cc3)cs2)cc1 [Compound 121] | 5.1 to 10 µM |
| CCN(CC)c1ccc(-c2csc(Nc3ccc(OC)cc3OC)n2)cc1 [Compound 122] | 1.1 to 5 µM |
| CCc1cc(N(CC)CC)ccc1Nc1nc(-c2ccc(-n3ccnc3)cc2)cs1 [Compound 241] | 1.1 to 5 µM |
| COc1cc(Nc2nc(-c3ccc(-c4ccccn4)s3)cs2)cc(OC)c1OC [Compound 106] | 5.1 to 10 µM |
| CCc1ccc(C)nc1Nc1ccc(C)c(Nc2nc(-c3ccc(-n4ccnc4)cc3)cs2)c1 [Compound 257] | 5.1 to 10 µM |
| Cc1cn(-c2ccc(-c3csc(Nc4cc(N5CCSCC5)ccc4C)n3)cn2)cn1 [Compound 281] | < 0.2 µM |
| CCN(CC)c1cc(Nc2nc(-c3ccc(-n4cnc(C)c4)cc3)cs2)c(C)cc1C [Compound 288] | < 0.2 µM |
| CCN(CC)c1ccc(-c2csc(Nc3ccc4[nH]cnc4c3)n2)cc1 [Compound 158] | 10.1 to 30 µM |
| COc1ccc(-c2csc(Nc3ccc4[nH]cnc4c3)n2)c(OC)c1 [Compound 160] | 0.2 to 1 µM |
| COc1ccc(-c2csc(Nc3ccc(C)c(Cl)c3)n2)c(OC)c1 [Compound 194] | 1.1 to 5 µM |
| COc1cc(Nc2nc(-c3ccc(-c4ccccc4)s3)cs2)cc(OC)c1OC [Compound 107] | 10.1 to 30 µM |
| Cc1cn(-c2ccc(-c3csc(Nc4cc(CO)ccc4C)n3)cn2)cn1 [Compound 300] | 0.2 to 1 µM |

| SMILES | EC50 |
| --- | --- |
| CN1CCN(c2ccc(-c3csc(Nc4cccc(Cl)c4)n3)cc2)CC1 [Compound 151] | 0.2 to 1 µM |
| CCN(CCO)c1ccc(Nc2nc(-c3ccc(-n4cnc(C)c4)cc3)cs2)c(C)c1 [Compound 204] | 0.2 to 1 µM |
| CCN(CC)c1ccc(C)c(Nc2nc(-c3ccc(-c4ccoc4)cc3)cs2)c1 [Compound 311] | 1.1 to 5 µM |
| CN1CCC(CNc2ccc(Nc3nc(-c4ccc(-n5ccnc5)cc4)cs3)c(C(F)(F)F)c2)CC1 [Compound 216] | 5.1 to 10 µM |
| CN1CCN(c2ccc(-c3csc(Nc4ccc5[nH]cnc5c4)n3)cc2)CC1 [Compound 155] | 1.1 to 5 µM |
| Cc1ccc(C(C)C)cc1Nc1nc(-c2ccc(-n3ccnc3)nc2)cs1 [Compound 325] | 1.1 to 5 µM |
| Cc1ccc(C)c(Nc2nc(-c3ccc(-n4cnc(Br)c4)cc3)cs2)c1 [Compound 316] | < 0.2 µM |
| Cc1cn(-c2ccc(-c3csc(Nc4cc(N(C)CC5CC5)ccc4C)n3)cc2F)cn1 [Compound 315] | < 0.2 µM |
| Oc1ccc(Nc2nc(-c3ccc4c(c3)OCO4)cs2)cc1 [Compound 118] | 5.1 to 10 µM |
| CCc1cc(N2CCOCC2)ccc1Nc1nc(-c2ccc(-n3ccnc3)cc2)cs1 [Compound 239] | 1.1 to 5 µM |
| c1cn(-c2ccc(-c3csc(Nc4ccc5[nH]cnc5c4)n3)cc2)cn1 [Compound 156] | 1.1 to 5 µM |
| c1cc2c(cc1Nc1nc(-c3ccc(N4CCN(CC5CC5)CC4)cc3)cs1)OCO2 [Compound 164] | 5.1 to 10 µM |
| CCN(CC)c1ccc(N(CC)c2nc(-c3ccc(-n4ccnc4)cc3)cs2)c(C)c1 [Compound 176] | 5.1 to 10 µM |
| CCN(CCO)c1ccc(Nc2nc(-c3ccc(-n4cnc(C)c4)cc3OC)cs2)c(C)c1 [Compound 207] | 1.1 to 5 µM |
| Cc1ccc(N(C)C)cc1Nc1nc(-c2ccc(-n3ccnc3)cc2)cs1 [Compound 259] | 0.2 to 1 µM |
| Cc1cnn(-c2ccc(-c3nc(Nc4c(Cl)cc(Cl)cc4Cl)sc3C)cc2)c1 [Compound 246] | 1.1 to 5 µM |
| COc1cc(C)c(Nc2nc(-c3ccc(-n4ccnc4)nc3)cs2)cc1C(C)C [Compound 319] | < 0.2 µM |
| CCN(CC)c1ccc(Nc2nc(-c3ccc(-n4cnc(C)c4)cc3OC)cs2)c(C)c1 [Compound 190] | 0.2 to 1 µM |
| CCN(CC)c1cc(C)c(Nc2nc(-c3ccc(-n4ccnc4)cc3)cs2)cc1C [Compound 292] | < 0.2 µM |
| Cc1cc(N2CCN(Cc3ccccc3)CC2)ccc1Nc1nc(-c2ccc(-n3ccnc3)cc2)cs1 [Compound 201] | 1.1 to 5 µM |
| CC(C)N(c1ccccc1)c1ccc(Nc2nc(-c3ccc(-n4ccnc4)cc3)cs2)cc1 [Compound 146] | 1.1 to 5 µM |
| CCc1cn(-c2ccc(-c3csc(Nc4ccc(N(CC)CC)cc4C)n3)cc2)cn1 [Compound 272] | 0.2 to 1 µM |
| CCN(CC)c1ccc(Nc2nc(-c3ccc(-c4ncc(Br)s4)cc3)cs2)c(C)c1 [Compound 312] | 0.2 to 1 µM |
| COc1ccc(-c2nc(Nc3cc(Cl)c(Cl)cc3Cl)sc2CC(=O)O)cc1 [Compound 187] | 1.1 to 5 µM |
| c1ccc2cc(-c3csc(Nc4ccc5[nH]cnc5c4)n3)ccc2c1 [Compound 159] | 5.1 to 10 µM |
| Oc1ccc(-c2csc(Nc3ccc4c(c3)OCO4)n2)cc1O [Compound 111] | 1.1 to 5 µM |
